Literature values as cited in PMC2866172 (Journal of medicinal chemistry, 2010).

Tested on: MTB enoyl-ACP reductase InhA
Settings: on MTB enoyl-ACP reductase InhA; cited from earlier work

## NC(=O)C1=CN([C@@H]2O[C@H](COP(=O)(O)OP(=O)(O)OC[C@H]3O[C@@H](n4cnc5c(N)ncnc54)[C@H](O)[C@@H]3O)[C@@H](O)[C@H]2O)C=C[C@@H]1C(=O)c1ccncc1 [INH-NAD adduct]
  Residence time: 60 min
